Experimental data from patent EP4678629A1, “IONIZABLE LIPID MOLECULE, PREPARATION METHOD THEREFOR AND USE THEREOF” (Maxirna (Shanghai) Pharmaceutical Co., Ltd., priority 2023, dated 2024).

Columns and labels:
[1] = Encapsulation efficiency of the lipid nanoparticle (eGFP mRNA) by Ribogreen method; type: physicochemical; conditions: LNP encapsulating eGFP mRNA, ionizable lipid/DOPE/cholesterol/DMG-PEG2000 50/10/48.25/1.25 mol%, N/P 12
How it was run: (§1)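 LNPs were made by microfluidic mixing of ionizable lipid/DOPE/cholesterol/DMG-PEG2000 (50/10/48.25/1.25 mol%) in ethanol with eGFP mRNA in 20 mM citrate pH 6.1, N/P 12, then ultrafiltered into DPBS and 0.2 µm filtered. Size and PDI by DLS at 173° backscatter; encapsulation by Ribogreen.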

[2] = Size and polydispersity index (PDI) of the lipid nanoparticle by dynamic light scattering; type: physicochemical; conditions: LNP encapsulating eGFP mRNA, ionizable lipid/DOPE/cholesterol/DMG-PEG2000 50/10/48.25/1.25 mol%, N/P 12; for Particle size: in nm (unit assumed)
How it was run: as §1

[3] = In vitro transfection of cells with eGFP-mRNA lipid nanoparticle (LNP preparation), fluorescence imaging and flow cytometry; type: cell-based, mouse; conditions: mouse, dc2.4 cells, 200 ng of mRNA per well, after 24 hours; read-out: Cell viability, %
How it was run: (§2)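 Mouse bone marrow-derived DC2.4 dendritic cells seeded at 2 × 10^5 cells/well in DMEM with 10% FBS, transfected with eGFP-mRNA LNPs the next day at 37 °C, 5% CO2. After 24 hours, viability, eGFP-positive rate and mean fluorescence intensity read by fluorescence imaging and flow cytometry.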

DC2.4 cells = test: as above; type: cell-based, mouse; conditions: eGFP positivity rate, DC2.4 cells, 200 ng of mRNA per well, after 24 hours
How it was run: as §2

| Structure (SMILES) | Encapsulation rate, % [1] [%] | PDI [2] | Particle size [2] | viability at 24 h [3] [%] | Positive rate, % (DC2.4 cells) [%] |
| --- | --- | --- | --- | --- | --- |
| CCCCCCCCCCCCCCOC(=O)CCCCCCN(CCCCO)CCCN(CCCCCCC(=O)OCCCCCCCCCCCCCC)CCCCCCC(=O)OCCCCCCCCCCCCCC [Example 58, Ditetradecyl 7,7'-((3-((4-hydroxybutyl)(7-oxo-7-(tetradecyloxy)heptyl)amino)propyl)azanediyl)diheptanoate] | 99.17 | 0.16 | 79.13 | 63.2 | 87.44 |
| CCCCCCCCCCCCCCOC(=O)CCCCCCCN(CCO)CCCN(CCCCCCCC(=O)OCCCCCCCCCCCCCC)CCCCCCCC(=O)OCCCCCCCCCCCCCC [Example 59, Ditetradecyl 8,8'-((3-((2-hydroxyethyl)(8-oxo-8-(tetradecyloxy)octyl)amino)propyl)azanediyl)dioctanoate] | 91.15 | 0.08 |  | 55.6 | 96.89 |
| CCCCCCCCCCCCCCOC(=O)CCCCCCCN(CCCO)CCCN(CCCCCCCC(=O)OCCCCCCCCCCCCCC)CCCCCCCC(=O)OCCCCCCCCCCCCCC [Example 60, Ditetradecyl 8,8'-((3-((3-hydroxypropyl)(8-oxo-8-(tetradecyloxy)octyl)amino)propyl)azanediyl)dioctanoate] | 99.46 | 0.10 | 65.40 | 72.3 | 97.14 |
| CCCCCCCCCCCCCCOC(=O)CCCCCCCN(CCCCO)CCCN(CCCCCCCC(=O)OCCCCCCCCCCCCCC)CCCCCCCC(=O)OCCCCCCCCCCCCCC [Example 61, Ditetradecyl 8,8'-((3-((4-hydroxybutyl)(8-oxo-8-(tetradecyloxy)octyl)amino)propyl)azanediyl)dioctanoate] | 97.38 | 0.13 | 82.47 | 71.2 | 95.85 |
| CCCCCCCCCCCOC(=O)CCN(CCO)CCCN(CCC(=O)OCCCCCCCCCCC)CCC(=O)OCCCCCCCCCCC [Example 67, Diundecyl 3,3'-((3-((2-hydroxyethyl)(3-oxo-3-(undecyloxy)propyl)amino)propyl)azanediyl)dipropionate] | 66.08 | 0.20 | 86.08 | 95.8 | 98.32 |
| CCCCCCCCCCCOC(=O)CCN(CCCCO)CCCN(CCC(=O)OCCCCCCCCCCC)CCC(=O)OCCCCCCCCCCC [Example 69, Diundecyl 3,3'-((3-((4-hydroxybutyl)(3-oxo-3-(undecyloxy)propyl)amino)propyl)azanediyl)dipropionate] | 85.47 | 0.13 |  | 91.9 | 97.10 |
| CCCCCCCCCCCOC(=O)CN(CCO)CCCN(CC(=O)OCCCCCCCCCCC)CC(=O)OCCCCCCCCCCC [Example 73, Diundecyl 2,2'-((3-((2-hydroxyethyl)(2-oxo-2-(undecyloxy)ethyl)amino)propyl)azanediyl)diacetate] | 85.54 |  | 85.54 | 84.1 | 97.94 |
| CCCCCCCCCCCOC(=O)CN(CCCO)CCCN(CC(=O)OCCCCCCCCCCC)CC(=O)OCCCCCCCCCCC [Example 74, Diundecyl 2,2'-((3-((3-hydroxypropyl)(2-oxo-2-(undecyloxy)ethyl)amino)propyl)azanediyl)diacetate] | 96.91 |  | 96.91 | 71 | 91.81 |
| CCCCCCCCCCCOC(=O)CN(CCCCO)CCCN(CC(=O)OCCCCCCCCCCC)CC(=O)OCCCCCCCCCCC [Example 75, Diundecyl 2,2'-((3-((4-hydroxybutyl)(2-oxo-2-(undecyloxy)ethyl)amino)propyl)azanediyl)diacetate] | 99.22 | 60.95 | 99.22 | 90.3 | 91.29 |
| CCCCCCCCCCCCCOC(=O)CN(CCO)CCCN(CC(=O)OCCCCCCCCCCCCC)CC(=O)OCCCCCCCCCCCCC [Example 76, Ditridecyl 2,2'-((3-((2-hydroxyethyl)(2-oxo-2-(tridecyloxy)ethyl)amino)propyl)azanediyl)diacetate] | 96.23 |  | 74.60 | 95 | 98.01 |
| CCCCCCCCCCCCCOC(=O)CN(CCCO)CCCN(CC(=O)OCCCCCCCCCCCCC)CC(=O)OCCCCCCCCCCCCC [Example 77, Ditridecyl 2,2'-((3-((3-hydroxypropyl)(2-oxo-2-(tridecyloxy)ethyl)amino)propyl)azanediyl)diacetate] | 99.78 | 70.33 | 99.78 | 83.9 | 90.71 |
| CCCCCCCCCCCCCOC(=O)CN(CCCCO)CCCN(CC(=O)OCCCCCCCCCCCCC)CC(=O)OCCCCCCCCCCCCC [Example 78, Ditridecyl 2,2'-((3-((4-hydroxybutyl)(2-oxo-2-(tridecyloxy)ethyl)amino)propyl)azanediyl)diacetate] | 99.86 | 53.66 | 99.86 | 91.7 | 81.35 |

Further lines, with some results ahead:

| Encapsulation rate, % [1] [%] | PDI [2] | Particle size [2] | Structure (SMILES) | viability at 24 h [3] [%] | Positive rate, % (DC2.4 cells) [%] |
| --- | --- | --- | --- | --- | --- |
| 99.32 | 0.16 | 99.80 | CCCCCCCCCCCCCOC(=O)CCCN(CCO)CCCN(CCCC(=O)OCCCCCCCCCCCCC)CCCC(=O)OCCCCCCCCCCCCC [Example 62, Ditridecyl 4,4'-((3-((2-hydroxyethyl)(4-oxo-4-(tridecyloxy)butyl)amino)propyl)azanediyl)dibutanoate] | 59 | 96.24 |
| 97.68 | 0.15 | 84.74 | CCCCCCCCCCCCCOC(=O)CCCN(CCCO)CCCN(CCCC(=O)OCCCCCCCCCCCCC)CCCC(=O)OCCCCCCCCCCCCC [Example 63, Ditridecyl 4,4'-((3-((3-hydroxypropyl)(4-oxo-4-(tridecyloxy)butyl)amino)propyl)azanediyl)dibutanoate] | 63.4 | 92.85 |
| 98.93 | 0.19 | 90.58 | CCCCCCCCCCCOC(=O)CCCN(CCCO)CCCN(CCCC(=O)OCCCCCCCCCCC)CCCC(=O)OCCCCCCCCCCC [Example 64, Diundecyl 4,4'-((3-((3-hydroxypropyl)(4-oxo-4-(undecyloxy)butyl)amino)propyl)azanediyl)dibutanoate] | 64.6 | 99.18 |
| 96.31 | 0.20 | 90.10 | CCCCCCCCCCCCCOC(=O)CCCN(CCCCO)CCCN(CCCC(=O)OCCCCCCCCCCCCC)CCCC(=O)OCCCCCCCCCCCCC [Example 65, Ditridecyl 4,4'-((3-((4-hydroxybutyl)(4-oxo-4-(tridecyloxy)butyl)amino)propyl)azanediyl)dibutanoate] | 60.3 | 96.80 |
| 94.12 | 0.14 |  | CCCCCCCCCCCOC(=O)CCCN(CCCCO)CCCN(CCCC(=O)OCCCCCCCCCCC)CCCC(=O)OCCCCCCCCCCC [Example 66, Diundecyl 4,4'-((3-((4-hydroxybutyl)(4-oxo-4-(undecyloxy)butyl)amino)propyl)azanediyl)dibutanoate] | 76.7 | 98.63 |
| 95.99 | 0.18 |  | CCCCCCCCCCCOC(=O)CCN(CCCO)CCCN(CCC(=O)OCCCCCCCCCCC)CCC(=O)OCCCCCCCCCCC [Example 68, Diundecyl 3,3'-((3-((3-hydroxypropyl)(3-oxo-3-(undecyloxy)propyl)amino)propyl)azanediyl)dipropionate] | 94.9 | 98.77 |
| 97.26 | 0.11 |  | CCCCCCCCCCCCCOC(=O)CCN(CCO)CCCN(CCC(=O)OCCCCCCCCCCCCC)CCC(=O)OCCCCCCCCCCCCC [Example 70, Ditridecyl 3,3'-((3-((2-hydroxyethyl)(3-oxo-3-(tridecyloxy)propyl)amino)propyl)azanediyl)dipropionate] | 91.2 | 99.07 |
| 98.30 | 85.88 | 98.30 | CCCCCCCCCCCCCOC(=O)CCN(CCCO)CCCN(CCC(=O)OCCCCCCCCCCCCC)CCC(=O)OCCCCCCCCCCCCC [Example 71, Ditridecyl 3,3'-((3-((3-hydroxypropyl)(3-oxo-3-(tridecyloxy)propyl)amino)propyl)azanediyl)dipropionate] | 97.3 | 98.99 |
| 99.70 |  | 99.70 | CCCCCCCCCCCCCOC(=O)CCN(CCCCO)CCCN(CCC(=O)OCCCCCCCCCCCCC)CCC(=O)OCCCCCCCCCCCCC [Example 72, Ditridecyl 3,3'-((3-((4-hydroxybutyl)(3-oxo-3-(tridecyloxy)propyl)amino)propyl)azanediyl)dipropionate] | 84 | 81.19 |
